Test results from patent US20110015225A1, “Heterocyclic compound” (Takeda Pharmaceutical Company Limited, priority 2008, published 2011).

Target: MCH receptor (SLC-1) (UniProt Q99705)
Assay: MCH receptor antagonistic activity using GTPγS binding assay
Type: biochemical, human
Conditions: [35S]-GTPγS binding, membrane fractions of SLC-1 expression CHO cells, 3×10^−10 M MCH, 25° C. 1 hr; read-out: Inhibitory Activity (IC50 value: nM)
Procedure: Using human SLC-1 expression CHO cell clone 57 and rat SLC-1 expression CHO cell clone 44 described in WO01/82925, membrane fractions of SLC-1 expression CHO cells were prepared by the following method. In phosphate buffered saline (pH 7.4) supplemented with 5 mM EDTA (ethylenediaminetetraacetic acid) were suspended human and rat SLC-1 expression CHO cells (1×10^8) and centrifuged. Homogenate buffer (10 ml, 10 mM […], 5 mM EDTA, pH 7.5) was added to the pellets of the cells and, using Polytron Homogenizer, the mixture was homogenated. The supernatant obtained after centrifugation at 400×g for 15 min was further centrifuged at 100,000×g for 1 hr to give precipitate of the membrane fraction. The precipitate was suspended in 2 ml of an assay buffer [50 mM Tris-HCl (pH 7.5), 1 mM EDTA, 0.1% BSA (bovine serum albumin), 10 mM MgCl2, 100 mM NaCl, 1 μM GDP (guanosine 5′-diphosphate), 0.25 mM PMSF (phenylmethylsulfonyl fluoride), […]] and centrifuged at 100,000×g for 1 hr. The membrane fraction recovered as precipitate was suspended again in 20 ml of an assay buffer, and after dispensing, preserved at −80° C. and used upon thawing each time when in use.
The MCH receptor antagonistic activity of the test compound was determined as follows. The membrane fractions of SLC-1 expression CHO cells (171 μl) diluted with an assay buffer was dispensed to a polypropylene 96 well plate and 3×10^−10 M MCH (2 μl) diluted with DMSO solution, test compound solution (2 μl) diluted to various concentrations and [^35S]-Guanosine 5′-(γ-thio)triphosphate (25 μl, Daiichi Pure Chemicals Co., Ltd.) were respectively added (cellular membrane final concentration: 20 μg/ml, [^35S]-Guanosine 5′-(γ-thio)triphosphate final concentration: 0.33 nM). The reaction mixture was reacted at 25° C. for 1 hr with stirring, suction filtered with a glass filter (GF-C) and washed 3 times with a wash solution (300 μl, 50 mM Tris-HCl buffer, pH 7.5). Liquid scintillator ([…]) was added to the glass filter and the residual radioactivity was determined by a liquid scintillation counter.
Binding inhibition (%)=(radioactivity upon addition of test compound and MCH−radioactivity upon addition of DMSO solution)/(radioactivity upon addition of MCH−radioactivity upon addition of DMSO solution)×100
From the binding inhibition (%), IC50 of the test compound was calculated.

| Structure (SMILES) | IC50 |
| --- | --- |
| Cc1c(NC(=O)c2ccc(OCC3CC3)cc2F)ccc2cc(CNC3CCS(=O)(=O)CC3)cnc12 [Ex. 34, 4-(cyclopropylmethoxy)-N-(3-{[(1,1-dioxidotetrahydro-2H-thiopyran-4-yl)amino]methyl}-8-methylquinolin-7-yl)-2-fluorobenzamide] | 2.7 nM |
| Cc1c(NC(=O)c2ccc(OCC3CC3)cc2F)ccc2cc(CNC3CC[S+]([O-])CC3)cnc12 (stereo not drawn) [Ex. 35, 4-(cyclopropylmethoxy)-2-fluoro-N-(8-methyl-3-{[(trans-1-oxidotetrahydro-2H-thiopyran-4-yl)amino]methyl}quinolin-7-yl)benzamide] | 5.6 nM |
| Cc1c(NC(=O)c2ccc(OCC3CC3)cc2F)ccc2cc(CNC3CC[S+]([O-])CC3)cnc12 (stereo not drawn) [Ex. 36, 4-(cyclopropylmethoxy)-2-fluoro-N-(8-methyl-3-{[(cis-1-oxidotetrahydro-2H-thiopyran-4-yl)amino]methyl}quinolin-7-yl)benzamide] | 3.4 nM |
| Cc1c(NC(=O)c2ccc(C#CC3CC3)cc2)ccc2cc(CNC3CCS(=O)(=O)CC3)cnc12 [Ex. 41, 4-(cyclopropylethynyl)-N-(3-{[(1,1-dioxidotetrahydro-2H-thiopyran-4-yl)amino]methyl}-8-methylquinolin-7-yl)benzamide] | 2.2 nM |
| Cc1c(NC(=O)c2ccc(C#CC3CC3)cc2)ccc2cc(CNC3CCN(S(C)(=O)=O)CC3)cnc12 [Ex. 42, 4-(cyclopropylethynyl)-N-[8-methyl-3-({[1-(methylsulfonyl)piperidin-4-yl]amino}methyl)quinolin-7-yl]benzamide] | 2.3 nM |
| Cc1c(NC(=O)c2ccc(C#CC3CC3)cc2)ccc2cc(CNCC3(O)CCS(=O)(=O)CC3)cnc12 [Ex. 43, 4-(cyclopropylethynyl)-N-[3-({[(4-hydroxy-1,1-dioxidotetrahydro-2H-thiopyran-4-yl)methyl]amino}methyl)-8-methylquinolin-7-yl]benzamide] | 4.7 nM |
| Cc1c(NC(=O)c2ccc(C#CC3CC3)cc2)ccc2cc(CNCCCS(C)(=O)=O)cnc12 [Ex. 44, 4-(cyclopropylethynyl)-N-[8-methyl-3-({[3-(methylsulfonyl)propyl]amino}methyl)quinolin-7-yl]benzamide] | 2.2 nM |
| Cc1c(NC(=O)c2ccc(/C=C/C3CC3)cc2)ccc2cc(CNC3CCS(=O)(=O)CC3)cnc12 [Ex. 45, 4-[(E)-2-cyclopropylvinyl]-N-(3-{[(1,1-dioxidotetrahydro-2H-thiopyran-4-yl)amino]methyl}-8-methylquinolin-7-yl)benzamide] | 4.9 nM |
| O=C(Nc1ccc2cc(CNC3CCS(=O)(=O)CC3)ccc2c1)c1ccc(OCC2CC2)cc1 [Ex. 46, 4-(cyclopropylmethoxy)-N-(6-{[(1,1-dioxidotetrahydro-2H-thiopyran-4-yl)amino]methyl}naphthalen-2-yl)benzamide] | 4.4 nM |
| CC1=C(CNC2CCS(=O)(=O)CC2)CCc2cc(NC(=O)c3ccc(OCC4CC4)cc3)ccc21 [Ex. 47, 4-(cyclopropylmethoxy)-N-(6-{[(1,1-dioxidotetrahydro-2H-thiopyran-4-yl)amino]methyl}-5-methyl-7,8-dihydronaphthalen-2-yl)benzamide] | 6.7 nM |
